Measurements from BigSolDB 2.1.

O=C(N[C@@H](Cc1c[nH]c2ccccc12)C(=O)O)OCc1ccccc1
solubility (mole fraction)
Details | 283.15 K | 288.15 K | 293.15 K | 298.15 K | 303.15 K | 308.15 K | 313.15 K | 318.15 K | 323.15 K
in 2-butanone | 0.133 | 0.143 | 0.152 | 0.161 | 0.173 | 0.182 | 0.196 | 0.205 | 0.221
in acetone | 0.204 | 0.23 | 0.264 | 0.306 | 0.358 | 0.409 | 0.458 | 0.505 | 0.557
in acetonitrile | 0.0197 | 0.025 | 0.0305 | 0.0428 | 0.06 | 0.0766 | 0.0967 | 0.117 | 0.134
in ethanol | 0.0567 | 0.0689 | 0.0826 | 0.1 | 0.124 | 0.142 | 0.164 | 0.189 | 0.208
in ethyl acetate | 0.0484 | 0.0559 | 0.0629 | 0.0707 | 0.0794 | 0.0906 | 0.103 | 0.118 | 0.133
in isobutanol | 0.00972 | 0.0123 | 0.0177 | 0.0245 | 0.0302 | 0.0379 | 0.045 | 0.0547 | 0.0692
in isopropanol | 0.0299 | 0.0351 | 0.0439 | 0.0536 | 0.0656 | 0.08 | 0.0917 | 0.109 | 0.125
in methyl acetate | 0.0663 | 0.0737 | 0.0836 | 0.0968 | 0.112 | 0.125 | 0.141 | 0.162 | 0.182
in n-butanol | 0.0231 | 0.0278 | 0.0334 | 0.0403 | 0.0526 | 0.0666 | 0.0784 | 0.0941 | 0.114
in n-pentanol | 0.0181 | 0.0209 | 0.0252 | 0.0322 | 0.0393 | 0.0458 | 0.0536 | 0.0631 | 0.0717
in n-propanol | 0.0283 | 0.0389 | 0.0502 | 0.064 | 0.0763 | 0.0881 | 0.104 | 0.123 | 0.141
in water | 4.06e-05 | 5.32e-05 | 6.49e-05 | 7.79e-05 | 8.87e-05 | 9.81e-05 | 0.000109 | 0.000118 | 0.000125
